According to patent US20060264418A1, “6-(2,2,2-Trifluoroethylamino-7-chloro-2,3,4,5-tetrahydro-1h-benzo[d] azephine as a 5-ht2c receptor agonist” (priority 2003, published 2006):

Assays:
human 5-HT2B receptor = target: T1, human 5-HT2B receptor (Homo sapiens, UniProt P41595); test: G alpha q-GTPγ[35S] binding agonist activity assay (ISPA), 5-HT2B; assay type: biochemical
T1 construct: expressed in transfected cells; host or cells: AV12 cells
Procedure: Agonist Activity Assays (G Alpha g-GTPγ[^35S] Binding Assays)
The 5-HT2 receptors are functionally coupled to specific G-proteins. Agonist activation of 5-HT2 G-protein-coupled receptors results in the release of GDP from the α-subunit (G alpha q or G alpha i) of the G-protein and the subsequent binding of GTP. The binding of the stable analog GTPγ[^35S] is an indicator of receptor activation (i.e. agonist activity).
The area under the dose response curve (AUC) is also determined for each receptor subtype and used to measure the test compound's selectivity for the 5-HT2C receptor over the 5-HT2A and 5-HT2B receptors, expressed as Selectivity Ratios (AUC 2C/2A and AUC 2C/2B, respectively). The Selectivity Ratios allow the assessment of selectivity based on both potency and efficacy. A selectivity measure that incorporates both potency and efficacy at the 5-HT2C receptor, as compared to the 5-HT2A and 5-HT2B.receptors, is considered important due to the adverse events associated with 5-HT2A and 5-HT2B agonist activity (see introduction). […]
G alpha q-GTPγ[^35S] […] Quantitate the GTPγ[^35] binding by microtiter plate scintillation spectrometry (Wallac Trilux MicroBeta™ scintillation counter). […]

male Long-Evans rats = test: Chronic feeding assay; assay type: in vivo, rat
Text: Animals: Obtain male Long-Evans rats (Harlan Sprague-Dawley, Indianapolis, Ind.) that are approximately one hundred-days old and have been maintained on a calorie rich diet since weaning (TD 95217, 40% calories from fat; Teklad, Madison, Wis.). House the rats individually with a 12 hr.:12 hr. light:dark cycle (lights on from about 22:00 hr. to about 10:00 hr.) and maintain rats on the same diet (TD 95217) with free access to water, for about 1-2 weeks to acclimate the rats to the environment. Dose rats orally with vehicle (10% acacia with 0.15% saccharin in water) once daily for at least 1 day (typically 1-2 days) to acclimate the rats to the procedures. Randomize the rats into groups so each group has similar mean body weights.
Chronic Feeding Assay: At between approximately 8:00 hr. and 10:00 hr. on day one of the assay, weigh and orally dose each rat with vehicle or test compound and return the animal to its home cage, with free access to food (pre-weighed) and water. For each of days 2-15, at between approximately 8:00 hr. and 10:00 hr., measure rat body weight and the weight of food consumed in the last 24 hr. period, and administer daily oral dose of test compound or vehicle. On days −2 and 15 measure total fat mass and lean mass by nuclear magnetic resonance (NMR) using an EchoMRI™ system (Echo Medical Systems, Houston Tex.). (See Frank C. Tinsley, Gersh Z. Taicher, and Mark L. Heiman, “Evaluation of a New Quantitative Magnetic Resonance (QMR) Method for Mouse Whole Body Composition Analysis”, Obesity Research, submitted May 1, 2003.)

D2 dopaminergic receptor = D2 dopaminergic receptor (Homo sapiens, UniProt P14416); test: Radioligand receptor binding assay, D2 dopaminergic
5-HT2C receptor = target: T2, 5-HT2C receptor (Homo sapiens, UniProt P28335); test: G alpha q-GTPγ[35S] binding agonist activity assay (ISPA), 5-HT2C; assay type: biochemical; set-up: expressed in transfected cells; host or cells: AV12 cells
T2 sequence (P28335 33-458): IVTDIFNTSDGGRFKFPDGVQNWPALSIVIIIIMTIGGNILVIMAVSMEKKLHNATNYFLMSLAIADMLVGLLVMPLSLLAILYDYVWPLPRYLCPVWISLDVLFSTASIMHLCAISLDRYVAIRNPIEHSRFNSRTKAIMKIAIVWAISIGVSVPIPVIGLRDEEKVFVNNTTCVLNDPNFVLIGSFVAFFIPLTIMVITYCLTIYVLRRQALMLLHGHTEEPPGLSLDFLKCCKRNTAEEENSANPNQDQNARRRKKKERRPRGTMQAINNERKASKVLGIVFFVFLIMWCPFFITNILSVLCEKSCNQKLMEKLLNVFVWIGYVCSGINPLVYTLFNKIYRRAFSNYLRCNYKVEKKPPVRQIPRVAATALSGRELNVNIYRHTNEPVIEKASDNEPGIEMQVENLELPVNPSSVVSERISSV

[1] = daily oral dose days 1-15, compared to control animals

T1 sequence (P41595 whole entry): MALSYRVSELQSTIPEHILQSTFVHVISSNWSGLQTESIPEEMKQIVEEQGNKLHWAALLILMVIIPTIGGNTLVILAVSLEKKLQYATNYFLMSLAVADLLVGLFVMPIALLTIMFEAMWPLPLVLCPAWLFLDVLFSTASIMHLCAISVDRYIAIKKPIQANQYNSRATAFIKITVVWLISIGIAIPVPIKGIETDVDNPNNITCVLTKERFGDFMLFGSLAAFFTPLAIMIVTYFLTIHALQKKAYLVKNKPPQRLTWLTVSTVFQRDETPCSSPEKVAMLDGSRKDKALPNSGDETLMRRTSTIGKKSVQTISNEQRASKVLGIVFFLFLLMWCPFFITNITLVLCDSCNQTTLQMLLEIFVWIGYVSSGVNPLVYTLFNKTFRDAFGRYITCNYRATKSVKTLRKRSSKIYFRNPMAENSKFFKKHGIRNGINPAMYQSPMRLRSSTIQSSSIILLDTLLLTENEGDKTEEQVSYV
Sequence of D2 dopaminergic receptor (P14416 whole entry): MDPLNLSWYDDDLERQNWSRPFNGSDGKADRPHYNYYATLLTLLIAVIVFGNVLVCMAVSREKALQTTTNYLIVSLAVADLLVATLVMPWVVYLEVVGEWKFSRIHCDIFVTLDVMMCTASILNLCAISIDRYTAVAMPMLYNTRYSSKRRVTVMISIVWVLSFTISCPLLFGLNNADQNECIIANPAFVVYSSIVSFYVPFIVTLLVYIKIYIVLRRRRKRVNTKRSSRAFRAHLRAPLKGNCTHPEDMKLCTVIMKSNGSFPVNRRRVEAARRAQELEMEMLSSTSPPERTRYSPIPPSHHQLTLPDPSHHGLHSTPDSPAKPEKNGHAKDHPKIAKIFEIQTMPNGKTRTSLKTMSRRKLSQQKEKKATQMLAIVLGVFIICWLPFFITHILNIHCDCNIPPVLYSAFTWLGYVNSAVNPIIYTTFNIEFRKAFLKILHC

With `FC(F)(F)CNc1c(Cl)ccc2c1CCNCC2.O=C(O)CCC(=O)O` [Example 2, 7-Chloro-6-(2,2,2-trifluoroethylamino)-2,3,4,5-tetrahydro-1H-benzo[d]azepine Succinic Acid Salt] as the compound, how does the Emax (human 5-HT2B receptor) read?
The Emax was 33.9 ± 1%.

And the EC50 (human 5-HT2B receptor; AV12 cell membranes with human 5-HT2B, ± standard error of the mean)?
The EC50 was 119 ± 34 nM.

What about the lean body mass (male Long-Evans rats; NMR, days -2 and 15) of the same compound?
Its lean body mass is “not changed”.

What about the “cumulative body weight change” value (male Long-Evans rats; [1]) of the same compound?
Its value is “significantly decrease”.

And the cumulative food intake (male Long-Evans rats; [1])?
The cumulative food intake was “significantly decrease”.

What about the “source of the decrease in body weight (fat mass by NMR)” value (male Long-Evans rats; days -2 and 15) of the same compound?
Its value is “loss of adipose tissue”.

And the IC50 (D2 dopaminergic receptor)?
Its IC50 is > 3 µM.

And the EC50 (5-HT2C receptor)?
The EC50 was 11.8 ± 2.8 nM.

And the “AUC 2C/2A Selectivity Ratio” value (5-HT2C receptor; ratio of AUCs normalized to 5-HT, 5-HT2C receptor/5-HT2A receptor)?
Its value is 2.2.

And the “AUC 2C/2B Selectivity Ratio” value (5-HT2C receptor; ratio of AUCs normalized to 5-HT, 5-HT2C receptor/5-HT2B receptor)?
Its value is 3.8.

And the Emax (5-HT2C receptor; read-out: 5HT2C Emax)?
The Emax was 106 ± 2.8%.
